Here are results for 22 molecules from patent publication US20120149902A1, “PYRROLO[2,3-D]PYRIMIDINE DERIVATIVE” (UBE INDUSTRIES, LTD., priority 2009, published 2012).

Assay [1] deals with T1, purified human recombinant HER2 kinase (Lys676-Val1255, GST fusion) (Homo sapiens, UniProt P04626).
T1 construct: human recombinant HER2 kinase (Lys676-Val1255, GST fusion); GST
The assay is described as follows: HER2 kinase enzyme inhibitory activity (HTRF). It counts as biochemical. To be noted: 200 μM ATP, FLT3 analogous peptide substrate, 60 minutes at room temperature. The protocol: The HER2 kinase enzyme inhibitory activity of a compound of the present invention was evaluated by using a purified human recombinant HER2 kinase (Lys676-Val1255, GST fusion) and a synthetic peptide as a substrate, and detecting the phosphorylation level of the substrate by the HTRF method (homogeneous time resolved fluorescence method). Specifically, 25 ng/well of activated HER2, 200 μM of ATP, 200 ng/well of FLT3 analogous peptide (biotin label, peptide sequence is AGGSSDNEYFYVDF), and test compound (final concentration 0.01 nM to 30 μM) were mixed in kinase reaction buffer (60 mM HEPES, 5 mM MgCl2, 5 mM MnCl2, 3 mM Na3VO4, 1.25 mM DTT, pH 7.5) to prepare 50 μL/well of total reaction volume, and the mixture was reacted for 60 minutes at room temperature. Then, the phosphorylation reaction was stopped and HTRF reaction was carried out by adding 25 μL/well of PBS solution comprising the following components and reacting the mixture for 12 to 16 hours at 4° C. The following components were dissolved in PBS (pH 7.0) to prepare the PBS solution composition: 60 mM EDTA (final concentration 20 mM), 1.2 M KF (final concentration […]), 1 mg/mL BSA (final concentration 333 μg/mL), 6 μg/mL anti-PY20-Cryptate (Cisbio international, France, final concentration 2 μg/mL), and 15 μg/mL Streptavidin labeled with XL665 (Cisbio international, France, final concentration 5 μg/mL).

The subject of assay [2] is HER2 overexpressed gastric cancer cell line NCI-N87. Description: Cytotoxic activity (in vitro), CellTiter-Glo viable cell count. It counts as cell-based. To be noted: Homo sapiens, NCI-N87, 72 h, NCI-N87, cultured for 72 hours. Here is the method: The cytotoxic activity of a compound of the present invention was investigated using a HER2 overexpressed gastric cancer cell line NCI-N87. Specifically, an appropriate amount of cells was seeded into a 96-well plate for cell culture at 50 μL/well, and precultured overnight at 37° C. under 5% —CO2 condition. A solution of a test compound in DMSO with dilution series was diluted with medium, and added to the precultured cells at the volume of 50 μL/well. The mixture was prepared such that the final concentration of DMSO became 0.1%. After the mixture was cultured for 72 hours at 37° C. under 5% —CO2 condition, 100 μL/well of CellTiter-Glo solution (Promega, Madison, Wis.) was added, the luminescence was measured using a luminometer (Wallac ARVO™ SX) 10 minutes later, and the viable cell count was determined.
Background: Cellular ATP, detected with luciferase, serves as a proxy for viable cell number.

In assay [3] the test system is HER2 overexpressed gastric cancer cell line. The assay is described as follows: In vivo anti-tumor effect, subcutaneous tumor transplant in nude mouse. As to conditions: oral, daily except Saturday and Sunday, 2 to 4 weeks, read-out: Tumor growth inhibition ratio (%); for inhibition in vivo at 100 mg/kg: dosage 100 mg/kg; for inhibition in vivo at 60 mg/kg: dosage 60 mg/kg; for inhibition in vivo at 30 mg/kg: dosage 30 mg/kg. Here is the method:
The anti-tumor effect in vivo of a compound of the present invention was evaluated using a HER2 overexpressed gastric cancer cell line. Specifically, a tumor fragment with about 5 mm square was transplanted subcutaneously using a transplantation needle, or an appropriate number of tumor cells was suspended in saline (Otsuka Pharmaceutical Co., Ltd.) and transplanted under the skin of the right axillary region of a nude mouse using a glass syringe equipped with a two-stage needle for subcutaneous injection. After the confirmation of the engraftment of the transplanted tumors, the mice were classified into groups depending on the tumor volume. The test compounds: the Example Compounds 1-1, 1-2, 1-5, 1-8, 1-13, 1-14, 1-15, 1-19, 1-20, 1-22, 2-1, 2-3, and 3-2 were each dissolved or suspended in an appropriate medium and orally administered forcedly to a mouse. The period of administration was varied from 2 weeks to 4 weeks depending on tumor, and the administration was carried out daily with drug holidays of Saturday and Sunday. The major axis (mm) and the minor axis (mm) of a tumor were measured sequentially using an electronic digital vernier caliper, and evaluated by the tumor growth inhibition ratio (GI %) on the judgement day (in principle, the next day of the final administration) using the following calculating formula.
A: Average tumor volume on the judgement day of the group to which a compound was administered (*)
B: Average tumor volume on the judgement day of the untreated control group (*)
*: The tumor volume is calculated by ½×[major axis of tumor]×[minor axis of tumor]^2.

T1 sequence (P04626 676-1255): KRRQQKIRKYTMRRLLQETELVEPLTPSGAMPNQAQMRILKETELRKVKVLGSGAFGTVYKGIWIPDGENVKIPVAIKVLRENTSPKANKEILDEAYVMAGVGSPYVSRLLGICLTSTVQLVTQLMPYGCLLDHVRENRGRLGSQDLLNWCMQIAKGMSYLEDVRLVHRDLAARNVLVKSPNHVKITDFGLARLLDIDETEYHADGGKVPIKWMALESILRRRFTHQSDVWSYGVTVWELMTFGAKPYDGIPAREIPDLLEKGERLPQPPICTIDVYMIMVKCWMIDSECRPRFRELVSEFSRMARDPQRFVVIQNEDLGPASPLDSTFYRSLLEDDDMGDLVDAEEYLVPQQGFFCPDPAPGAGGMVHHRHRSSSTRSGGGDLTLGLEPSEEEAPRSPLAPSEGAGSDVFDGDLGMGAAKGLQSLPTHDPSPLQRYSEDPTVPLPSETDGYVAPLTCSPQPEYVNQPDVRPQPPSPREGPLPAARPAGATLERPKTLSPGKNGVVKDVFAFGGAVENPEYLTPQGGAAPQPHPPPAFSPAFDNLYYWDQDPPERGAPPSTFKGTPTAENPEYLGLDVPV

Take `C[C@@H]1CN(Cc2c[nH]c3ncnc(Nc4ccc(Cl)cc4)c23)CC[C@H]1N` (relative stereo) [Example 1-21, trans-[5-(4-Amino-3-methylpiperidin-1-ylmethyl)-7H-pyrrolo[2,3-d]pyrimidin-4-yl](4-chlorophenyl)amine]: in assay [1], the IC50 (commonly the concentration that gives 50% inhibition) was in the range of 0.05 to 0.1 µM. In assay [2], the concentration for 50% growth inhibition (GI50) (usually the concentration that inhibits growth by half) lay within 0.02 to 0.05 µM.
On to `N[C@@H]1CCN(Cc2c[nH]c3ncnc(Nc4ccc(F)c(Cl)c4)c23)C[C@H]1O` (relative stereo) [Example 2-1, trans-4-Amino-1-[4-(3-chloro-4-fluorophenylamino)-7H-pyrrolo[2,3-d]pyrimidin-5-ylmethyl]piperidin-3-ol], for which the concentration for 50% growth inhibition (GI50) in assay [2] lay in the range of 0.02 to 0.05 µM. The inhibition in vivo at 100 mg/kg in assay [3] turned out to be 52%.
With `N[C@@H]1CCN(Cc2c[nH]c3ncnc(Nc4ccc5occc5c4)c23)C[C@H]1O` (relative stereo) [Example 2-2, trans-4-Amino-1-[4-(benzofuran-5-ylamino)-7H-pyrrolo[2,3-d]pyrimidin-5-ylmethyl]piperidin-3-ol], in assay [2], the GI50 lay in the range of 0.02 to 0.05 µM.
`N[C@@H]1CCN(Cc2c[nH]c3ncnc(Nc4cccc(Br)c4)c23)C[C@H]1O` (relative stereo) [Example 2-3, trans-4-Amino-1-[4-(3-bromophenylamino)-7H-pyrrolo[2,3-d]pyrimidin-5-ylmethyl]piperidin-3-ol] registered a 50% growth inhibitory concentration (GI50) in assay [2] below 0.02 µM. Further, the inhibition in vivo at 100 mg/kg in assay [3] was 76%.
With `CC1CN(Cc2c[nH]c3ncnc(Nc4ccc(Cl)cc4)c23)CCC1N` (single isomer, unassigned; enantiomer 1) [Example 1-22, trans-[5-(4-Amino-3-methylpiperidin-1-ylmethyl)-7H-pyrrolo[2,3-d]pyrimidin-4-yl](4-chlorophenyl)amine [Enantiomer 1]], the IC50 in assay [1] is 0.05 to 0.1 µM. Moreover, the inhibition in vivo at 60 mg/kg in assay [3] was 88%.
Consider `CC1CN(Cc2c[nH]c3ncnc(Nc4ccc(Cl)cc4)c23)CCC1N` (single isomer, unassigned; enantiomer 2) [Example 1-23, trans-[5-(4-Amino-3-methylpiperidin-1-ylmethyl)-7H-pyrrolo[2,3-d]pyrimidin-4-yl](4-chlorophenyl)amine [Enantiomer 2]], for which the IC50 in assay [1] was at least 0.1 µM.
For the molecule `NC1CCN(Cc2c[nH]c3ncnc(Nc4ccc5occc5c4)c23)CC1` [Example 1-1, [5-(4-Aminopiperidin-1-ylmethyl)-7H-pyrrolo[2,3-d]pyrimidin-4-yl]benzofuran-5-ylamine], the GI50 in assay [2] lay within 0.02 to 0.05 µM. Besides, the inhibition in vivo at 60 mg/kg in assay [3] came out at 84%.
Consider `NC1CCN(Cc2c[nH]c3ncnc(Nc4ccc(F)c(Cl)c4)c23)CC1` [Example 1-2, [5-(4-Aminopiperidin-1-ylmethyl)-7H-pyrrolo[2,3-d]pyrimidin-4-yl](3-chloro-4-fluorophenyl)amine], for which the 50% growth inhibitory concentration (GI50) in assay [2] was in the range of 0.02 to 0.05 µM. The inhibition in vivo at 30 mg/kg in assay [3] was determined as 75%.
Consider `C#Cc1cccc(Nc2ncnc3[nH]cc(CN4CCC(N)CC4)c23)c1` [Example 1-5, [5-(4-Aminopiperidin-1-ylmethyl)-7H-pyrrolo[2,3-d]pyrimidin-4-yl](3-ethynylphenyl)amine], for which the inhibition in vivo at 30 mg/kg in assay [3] stood at 90%.
Turning to `Cc1ccc(Nc2ncnc3[nH]cc(CN4CCC(N)CC4)c23)cc1Br` [Example 1-6, [5-(4-Aminopiperidin-1-ylmethyl)-7H-pyrrolo[2,3-d]pyrimidin-4-yl](3-bromo-4-methylphenyl)amine], the IC50 in assay [1] is below 0.01 µM. In addition, in assay [2], the GI50 is 0.02 to 0.05 µM.
`NC1CCN(Cc2c[nH]c3ncnc(Nc4cc(F)c(F)c(F)c4)c23)CC1` [Example 1-7, [5-(4-Aminopiperidin-1-ylmethyl)-7H-pyrrolo[2,3-d]pyrimidin-4-yl](3,4,5-trifluorophenyl)amine]: the IC50 in assay [1] lay in the range of 0.01 to 0.05 µM. This molecule also came in with a GI50 in assay [2] below 0.02 µM.
Regarding `NC1CCN(Cc2c[nH]c3ncnc(Nc4cccc(Br)c4)c23)CC1` [Example 1-8, [5-(4-Aminopiperidin-1-ylmethyl)-7H-pyrrolo[2,3-d]pyrimidin-4-yl](3-bromophenyl)amine], the half-inhibitory concentration (IC50) in assay [1] was below 0.01 µM. Further, the 50% growth inhibitory concentration (GI50) in assay [2] is below 0.02 µM. The inhibition in vivo at 30 mg/kg in assay [3] is 59%.
For `NC1CCN(Cc2c[nH]c3ncnc(Nc4ccc5[nH]ncc5c4)c23)CC1` [Example 1-9, [5-(4-Aminopiperidin-1-ylmethyl)-7H-pyrrolo[2,3-d]pyrimidin-4-yl](1H-indazol-5-yl)amine], the concentration for half-maximal inhibition (IC50) in assay [1] was 0.01 to 0.05 µM. In assay [2], the GI50 lay within 0.05 to 0.5 µM.
On the same counts, the results for `NC1CCN(Cc2c[nH]c3ncnc(Nc4ccc(Cl)c(Cl)c4)c23)CC1` [Example 1-10, [5-(4-Aminopiperidin-1-ylmethyl)-7H-pyrrolo[2,3-d]pyrimidin-4-yl](3,4-dichlorophenyl)amine] are below 0.01 µM and 0.02 to 0.05 µM.
On the same counts, the results for `NC1CCN(Cc2c[nH]c3ncnc(Nc4cc(F)cc(Br)c4)c23)CC1` [Example 1-11, [5-(4-Aminopiperidin-1-ylmethyl)-7H-pyrrolo[2,3-d]pyrimidin-4-yl](3-bromo-5-fluorophenyl)amine] are 0.01 to 0.05 µM and 0.02 to 0.05 µM.
Turning to `CC1(N)CCN(Cc2c[nH]c3ncnc(Nc4cccc(Br)c4)c23)CC1` [Example 1-12, [5-(4-Amino-4-methylpiperidin-1-ylmethyl)-7H-pyrrolo[2,3-d]pyrimidin-4-yl](3-bromophenyl)amine], the concentration for half-maximal inhibition (IC50) in assay [1] was below 0.01 µM.
Regarding `COc1cccc(Nc2ncnc3[nH]cc(CN4CCC(C)(N)CC4)c23)c1` [Example 1-13, [5-(4-Amino-4-methylpiperidin-1-ylmethyl)-7H-pyrrolo[2,3-d]pyrimidin-4-yl](3-methoxyphenyl)amine], the IC50 in assay [1] was below 0.01 µM. Also, in assay [3], the inhibition in vivo at 30 mg/kg was found to be 72%.
For `C#Cc1cccc(Nc2ncnc3[nH]cc(CN4CCC(C)(N)CC4)c23)c1` [Example 1-14, [5-(4-Amino-4-methylpiperidin-1-ylmethyl)-7H-pyrrolo[2,3-d]pyrimidin-4-yl](3-ethynylphenyl)amine], the IC50 in assay [1] was in the range of 0.01 to 0.05 µM. Further, the inhibition in vivo at 10 mg/kg in assay [3] (dosage 10 mg/kg) was 75%.
For `COCC1(N)CCN(Cc2c[nH]c3ncnc(Nc4cccc(Br)c4)c23)CC1` [Example 1-16, [5-(4-Amino-4-methoxymethylpiperidin-1-ylmethyl)-7H-pyrrolo[2,3-d]pyrimidin-4-yl](3-bromophenyl)amine], in assay [1], the IC50 was below 0.01 µM. In addition, in assay [2], the concentration for 50% growth inhibition (GI50) was below 0.02 µM.
Consider `COCC1(N)CCN(Cc2c[nH]c3ncnc(Nc4ccc5occc5c4)c23)CC1` [Example 1-17, [5-(4-Amino-4-methoxymethylpiperidin-1-ylmethyl)-7H-pyrrolo[2,3-d]pyrimidin-4-yl](benzofuran-5-yl)amine], for which, in assay [1], the IC50 lay in the range of 0.05 to 0.1 µM. Besides, in assay [2], the concentration for 50% growth inhibition (GI50) lay within 0.02 to 0.05 µM.
For `CNC1CCN(Cc2c[nH]c3ncnc(Nc4cccc(Br)c4)c23)CC1` [Example 1-18], in assay [1], the IC50 is below 0.01 µM. Further, the concentration for 50% growth inhibition (GI50) in assay [2] was below 0.02 µM.
Turning to `C#Cc1cccc(Nc2ncnc3[nH]cc(CN4CCC(NC)CC4)c23)c1` [Example 3-1, (3-Ethynylphenyl)[5-(4-methylaminopiperidin-1-ylmethyl)-7H-pyrrolo[2,3-d]pyrimidin-4-yl]amine], the IC50 in assay [1] is below 0.01 µM. The GI50 in assay [2] was below 0.02 µM.
